Entries after “also recorded” stand apart in the source; their conditions may differ. Read-outs that look alike come from different tables or passages of the source.
What was measured:
in vivo = conditions: for LD50 at 336 h / LD50 safety limits: rat, in vivo
Description: In accordance with the invention, flavopereirine is administered orally in the forms of capsules to patients infected with HIV at levels of 1-3 grams per day.

[1] = Sub-chronic administration toxicity in rats; assay type: in vivo, male and female Sprague-Dawley rats (OPA); conditions: 530 and 2120 mg/kg/day
Excerpt: No lesions of the liver, kidneys, duodenum, myocardia, spleen, thyroid and parathyroid glands, testicles or ovaries were visible by microscope.

[2] = Penetration of the blood-brain barrier (encephalic content); assay type: in vivo, male CDI mice; conditions: 10 mg orally
HIV = assay type: cell-based
H-9 cells = assay: Multiplication of non-infected H-9 cells; assay type: cell-based; conditions: 30 and 60 μg/ml
MT4 cells = assay: Cellular toxicity in MT4 cells; assay type: cell-based; conditions: d3, duplicate
HIV-1 TIG2 (HIV-1AIDS) = assay: HIV P24 production, target PBMC pretreated, isolate TIG2; assay type: cell-based; conditions: for Post-infection production of HIV P24: PBMC + 30 μg/ml 2 hours
Description: To test the efficacy of flavopereirine on the infectious capability of HIV-1, two experiments were conducted. […] After 2 hours of incubation, the cells were rinsed twice and cultivated in 1 ml of RPMI 1640 containing 20 IU of IL-2 per ml (Boehringer […], Germany), 2 μg of Polybrene (hexadimethrine bromide) per ml (Sigma, St. Louis, Mo., USA) and 10^-7 IU of goat antiserum acting against human alpha interferon (Janssen, Beerse, Belgium) per ml. Half the culture was changed after 72 hours, and thereafter every 48 hours until the 30th day. […] The surface material of the culture was tested by an immuno-enzymatic (ELISA) assay for the production of antigen P24 (Abbott, Chicago, Ill., USA) and the optical density (OD) of the resulting color was converted into P24 concentration from the slope of a standard nomogram, as described by W. Lu and J. -M. Andrieu, Journal of Virology, 66(1): 334-340 (1992).

[3] = Cytotoxicity (viability) in blastic PBMC; assay type: cell-based, human; conditions: human, pha-stimulated pbmc, blastic, read-out: Viability of PBMC after exposure; for viability at 72 h: d3; for viability at 168 h: d7; for viability at 264 h: d11; for viability at 312 h: d13; for viability at 360 h: d15
Description: (§1) To evaluate the cytotoxicity of flavopereirine in resting PBMC and in blast cells, prewashed fresh and blastic PBMC taken from five randomly-selected,healthy, HIV-negative donors were treated in triplicate with 30 or 60 μg flavopereirine per ml of alcoholic solution for two hours, After washing twice, the cells were placed in culture in cellular culture medium until day 15. The viability of the cells of each group was examined by exclusion coloring with trypan blue and by quantimetric analysis. Cultures of HIV-negative PBMC without flavopereirine (compound H) were used as controls.

[4] = tested on: PBMC stimulated by PHA (blastic); assay: Cytotoxicity (viability) in blastic PBMC; assay type: cell-based, human; conditions: 30 or 60 μg/ml
Description: as §1

[5] = tested on: human PBMC stimulated with PHA (blasts); assay: Cytotoxicity in PHA-stimulated PBMC with or without human AB serum; assay type: cell-based
Description: The cytotoxicity of flavopereirine (compound H) in human PBMC stimulated with PHA was tested in the presence and absence of human AB serum as shown in Table IX.

interleukin-6 [6] = assay: IL-6 production by monocytes of normal donors; assay type: cell-based, human
Description: (§2) The effects of flavopereirine on the production of primary (IL-1β and TNF-α) and secondary (IL-6) cytokines by monocytes was also tested. The adhesive monocytes used were taken from the blood of two types of donors:
Normal donors--voluntary blood donors who attended the blood bank of the Pitie-Salpetriere Hospital, Paris, France; and […]

TNF-α = TNF-α production by monocytes of HIV-positive donors; assay type: cell-based, human
Description: as §2
(§3) HIV-positive donors from medical consultations. These individuals were in the early stages of HIV infection and, at the moment of taking the blood, were not undergoing any treatment. The risk factors involved were intravenous drug abuse for six of the donors, sexual transmission for three and blood transfusion (in Zaire) for one patient. No correlation was found between the risk factors and the results of the experiments.
(§4) The response of the monocytes taken from the various HIV-positive donors was tested in terms of spontaneous response. The quantities of cells received were low (the donors were not affected by cytapheresy), and the experiments were therefore limited by the number of cells available.

interleukin-6 [7] = assay: IL-6 production by monocytes of HIV-positive donors; assay type: cell-based, human
Description: as §2, §3, §4
Interleukin-4 was used at the same time as flavopereirine H, since it has been shown prior to these experiments that this cytokine blocks the spontaneous production of interleukin-6 in certain HIV-positive patients.
In five cases, […] was used for comparison, since this, too, blocks the production of IL-6 in normal monocytes stimulated by LPS.

[8] = Cytotoxicity in human monocytes; assay type: cell-based; conditions: human, monocytes
Description: (§5) Product H was not used in these experiments at a rate of more than 20 μg/ml water, since above this rate, net toxicity could have been produced.

human monocytes = assay: Cytotoxicity in human monocytes; assay type: cell-based; conditions: four donors
Description: as §5

[9] = tested on: viruses of the Shope fibrome type; conditions: intracutaneously 200-600 μg or 2.5-500 mg/day; cited from earlier work

Compound `CCc1ccc2c3[nH]c4ccccc4c3cc[n+]2c1` [flavopereirine] has an LD50 at 336 h (in vivo; ip) of 2450 mg/kg, an LD50 safety limits (in vivo; ip) of 2350 to 2550 mg/kg and an LD50 at 336 h (in vivo; po) of 10400 mg/kg. The LD50 safety limits (in vivo; po) was 9630 to 11350 mg/kg, the “change in mortality rate” value (in vivo; subsequent 14 days, surviving animals) was “No change in mortality rate” and the “alteration in globular blood count” value [1] was “Neither was any alteration in the globular blood count noted”. The “alterations in body weight or feeding” value [1] was “no alterations were noted in either body weight or feeding”, the “hepatic and renal functions” value [1] was “remained normal” and the “lesions of liver, kidneys, duodenum, myocardia, spleen, thyroid, parathyroid, testicles, ovaries” value ([1]; microscope) was “No lesions”. The encephalic flavopereirine concentration ([2]; 20 g mice, brains 0.5 g) was 14 µg/g, the encephalic flavopereirine content ([2]; mice) was “approximately 7 μg” and the “penetration of the blood-brain barrier” value ([2]; mice) was “observed to penetrate the blood-brain barrier”. For the same compound, the infectious units detectable (HIV) was at most 3000, the inhibition of infection (HIV) was “exceeds 99%” and the “reduction in quantity of infected cells” value (HIV; h-9 cells) was “around 40%”. The “multiplication of non-infected cells” value (H-9 cells) was “does not affect the multiplication of non-infected cells”, the cellular toxicity (MT4 cells; 100 μg/ml, Table I) was “cellular toxicity” and the cellular toxicity (MT4 cells; 100 μg/ml, Table I, listed as H) was “Tox”. For the same compound, the cellular toxicity (MT4 cells; 100 μg/ml, Table II) was “Tox”, the cellular toxicity (MT4 cells; 400 μg/ml, Table I) was “cellular toxicity” and the cellular toxicity (MT4 cells; 400 μg/ml, Table I, listed as H) was “Tox”. For the same compound, the “Post-infection production of HIV P24” value (HIV-1 TIG2 (HIV-1AIDS); d3) was 515 ± 103 pg/mL, the “Post-infection production of HIV P24” value (HIV-1 TIG2 (HIV-1AIDS); d5) was over 1500 pg/mL and the “inhibition of productive viral infections” value (HIV-1 TIG2 (HIV-1AIDS); target PBMC pretreated with 60 μg/ml only) was “complete inhibition of productive viral infections”. For the same compound, the viability at 72 h ([3]; 30 μg/ml 2 hrs) was 88 ± 3%, the viability at 168 h ([3]; 30 μg/ml 2 hrs) was 35 ± 7% and the viability at 264 h ([3]; 30 μg/ml 2 hrs) was 71 ± 3%. It also gave a viability at 312 h ([3]; 30 μg/ml 2 hrs) of 76 ± 9%, a viability at 360 h ([3]; 30 μg/ml 2 hrs) of 69 ± 8% and a viability at 72 h ([3]; 60 μg/ml 2 hrs) of 79 ± 4%. The viability at 168 h ([3]; 60 μg/ml 2 hrs) was 74 ± 5%, the viability at 264 h ([3]; 60 μg/ml 2 hrs) was 70 ± 4% and the viability at 312 h ([3]; 60 μg/ml 2 hrs) was 71 ± 8%. For the same compound, the viability at 360 h ([3]; 60 μg/ml 2 hrs) was 63 ± 7%, the “viability of blastic cells” value [4] was “appeared to be independent of exposure to compound H” and the “viability of blast PBMC” value ([5]; 200 μg/ml, p<0.001) was “diminished significantly”. The “significant reduction of viability of blast PBMC” value ([5]; 100, 60, 30 and 10 μg/ml) was “this was not the case”, the “activity on cytokine production” value (interleukin-6 [6]; doses of less than 5 μg/ml, first two normal donors, cytokine not specified) was “inactive” and the “direct activity on production of interleukin-6” value (interleukin-6 [6]; normal donors) was “No modification in response was observed”. For the same compound, the “indirect activity on production of IL-6” value (interleukin-6 [6]; stimulated monocytes, dose-dependent, never total, P<0.05) was “sharp reduction in the production of IL-6”, the “indirect activity on production of TNF-α” value (TNF-α; 20 μg/ml only, p<0.05) was “almost total reduction in the production of TNF-α” and the “direct activity on base production of TNF-α” value (TNF-α; HIV-positive donors) was “No modification on the base production was observed”. For the same compound, the “effect on spontaneous production of IL-6” value (interleukin-6 [7]; alone, dosage effect, never total, p<0.05, listed as Product H) was “inhibitory effect with a very clear dosage effect; also recorded: inhibited the spontaneous production of IL-6 shown in some HIV-positive patients”, the “effect on spontaneous production of IL-6 with interleukin-4” value (interleukin-6 [7]; in presence of interleukin-4, listed as product H) was “an amplification effect was almost always obtained” and the “concentration for total disappearance of IL-6 production” value (interleukin-6 [7]; with interleukin-4, almost always (except case #4), p<0.05) was 3 µg/mL. The “concentration for total disappearance of IL-6 production (often)” value (interleukin-6 [7]; with interleukin-4, often, p<0.05) was 1 µg/mL, the cytotoxicity ([8]; 30 μg/ml, four donors) was over 40% and the MCC ([8]; healthy and asymptomatic HIV-positive donors, read-out: toxic dosage on human monocytes in vitro) was over 20 µg/mL. The cytotoxicity (human monocytes; 30, 50, 100 μg/ml) was “virtually total cytotoxicity”, the cytotoxicity (human monocytes; above 30 μg/ml) was 100 µg/mL and the “appearance and development of vital papules” value [9] was “prevents the appearance and development of vital papules”.
